{
  "source": "patent US20170119790A1",
  "about": "“Agents, Uses and Methods” (CYTOGUIDE A/S, priority 2009, published 2017)",
  "key": {"[1]": {"test_system": "LPS mediated TNFα stimulation of rat macrophages / spleen cells", "assay": "Rat in vitro LPS model", "assay_type": "cell-based", "settings": "1 μg/ml, LPS 20 hours, FIG. 37", "procedure": "Rat or mouse peritoneal or spleen cell suspensions were prepared from female Lewis rats (Harlan) or BalB/cA mice (Taconic). Human mononuclear cells were isolated from buffycoats (Skejby University Hospital) as described above. The purified cells were suspended in RPMI medium supplemented with 10% FCS and 2 mM L-glutamine and cultured (2×10^5 per well) overnight in 96-well flat bottomed plates (125 μl per well) at 37° C. and 5% CO2. Glucocorticoid conjugates (Example 8), free glucocorticoids or PBS were serial diluted in supplemented RPMI medium and added (100 μl) to the overnight cell cultures at final concentrations ranging from 1-10^−7 μg glucocorticoid/ml. After incubation for a specific time ranging from 30 min-24 hours, 150 μl supernatant was carefully aspirated and 150 μl supplemented RPMI medium added to the wells before further incubation overnight. Each incubation condition was tested in duplicates or triplicates. After 16-20 hours, the cells were challenged with lipopolysaccharide (LPS) (250 ng/ml) for 4 hours before supernatant was aspirated from each well and frozen at -20° C."}, "[2]": {"test_system": "LPS mediated TNFα stimulation", "assay": "Rat in vivo LPS model", "parameters": "species or system Lewis rats"}, "[3]": {"test_system": "LPS mediated TNFα stimulation", "settings": "serum 2 hours post LPS challenge, FIG. 42"}, "[4]": {"test_system": "collagen-induced arthritis", "settings": "for body weight after initiation of treatment: FIG. 47; for day of disease onset: mean±SD; for thymus weight compared to vehicle: at sacrifice", "method": "The effect of dexamethasone on arthritis development in the rat CIA model was tested at three dosages (0.01, 0.1 and 1 mg/kg). Dexamethasone was administered intravenously on day 10 (day of disease onset), 13, 16 and 19. […] Treatment with vehicle (PBS/2.5% EtOH) served as negative control. Rats were sacrificed 21 days after immunization.\nCollagen arthritis was induced in 9 weeks old female Lewis rats using a two-step immunization protocol. On day 0, all mice were immunized by intradermal injection of 1 mg/ml bovine type II collagen emulsified in Incomplete Freund's adjuvant at several sites at the back. Arthritis development was accelerated by an intradermal boost in the back and tail-base with 100 Sg bovine type II collagen in IFA on day 7. In order to perform immunization and intradermal boost, rats were anesthetized by inhalation of 3-4% isoflurane in a mixture of oxygen and N2O.\nRats were evaluated 6 times per week (once during weekends) for arthritis severity using a macroscopic scoring system of 0-4 for each paw as detailed below: • 0=no signs of arthritis • 0.5=unloading of the paw and/or light redness of ankle joint • 1=redness and mild swelling of the ankle joint • 2=redness and swelling of paw • 3=severe redness and swelling of entire paw including digits • 4=maximally swollen paw, often involvement of multiple joints and extending towards knee joint.\nThe total clinical score of an individual rat is defined as the sum of the clinical scores of all four paws for each day. At the end of the study, the cumulative arthritis score was calculated for each rat. This cumulative arthritis score is defined as the sum of the total clinical scores obtained from day 0 till day 21.\nThe day of disease is defined as the first day of three consecutive days on which a total arthritis score of more than 0 was observed.\nThe swelling of the hind paws was measured during weekdays with a laser scan micrometer (Mitutoyo, LSM-503S/6200). At the end of the study, the cumulative paw swelling was calculated for each rat as follows: a baseline value was determined by averaging the paw thickness values of day 0-9 when no signs of arthritis were visible. Next, increase in paw thickness was calculated by subtracting the baseline value from the paw thickness values obtained on day 10-21 (delta value). Cumulative paw swelling is defined as the sum of the delta paw thickness values from day 10 till 21.\nSpleen, thymus and liver were isolated and weighed at sacrifice. Weights were normalized for body weight.\nCollagen-induced arthritis (CIA) was induced in female Lewis rats (9 weeks of age) by intradermal injection of approximately 1 mg bovine type II collagen (Chondrex) emulsified in Incomplete Freund's adjuvant (IFA). The rats were immunized at several sites at the back under isoflurane anaesthesia (day 0) and boosted intradermal at the back and tail-base with 100 μg bovine type II collagen in IFA at day 7. The rats were scored 6 times per weeks for clinical signs of arthritis. Clinical severity of CIA was determined by swelling of individual joints and the number of affected joints in the front and rear paws. Each paw was scored from 1 to 4, so the maximum clinical score, including all four paws was 16.\nA total of 20 rats were divided into five treatment groups (4 rats each). […] Changes in ankle size and body weight were monitored during the treatment process. On day 21, all animals were sacrificed and joint tissue, spleen, liver and thymus were dissected."}},
  "note": "“Also recorded” adds a separate entry of the source. Read-outs that look alike come from different tables or passages of the source.",
  "data": [
    {"smiles": "C[C@@H]1C[C@H]2[C@@H]3CCC4=CC(=O)C=C[C@]4(C)[C@@]3(F)[C@@H](O)C[C@]2(C)[C@@]1(O)C(=O)CO", "note": "[dexamethasone]", "values": [
      {"measurement": "TNFα concentration higher in supernatants of macrophages stimulated without the agent (ED2 or PBS)", "setting": "[1]", "result": "approximately 10 fold"},
      {"measurement": "spleen and thymus weight compared with rats injected with ED2-dexamethasone", "setting": "[2]; 2 days post LPS injection, FIG. 39B and C", "result": "significantly lower"},
      {"measurement": "level of TNFα lower compared to vehicle", "setting": "[2]; i.v. 20 hours before LPS, serum 2 hours after LPS, FIG. 39A", "result": 2, "unit": "fold"},
      {"measurement": "TNFα level lower compared to vehicle", "setting": "[3]", "result": 2, "unit": "fold"},
      {"measurement": "cumulative arthritis score reduced with respect to the vehicle group", "setting": "[4]; 0.01 mg/kg", "result": 39, "unit": "%"},
      {"measurement": "day on which disease incidence of 100% was reached", "setting": "[4]; 0.01 mg/kg", "result": 14, "unit": "days"},
      {"measurement": "body weight after initiation of treatment", "setting": "[4]; 0.01 mg/kg", "result": "a certain degree of body weight loss"},
      {"measurement": "cumulative arthritis score reduced with respect to the vehicle group", "setting": "[4]; 0.1 mg/kg", "result": 69, "unit": "%"},
      {"measurement": "day of disease onset", "setting": "[4]; 0.1 mg/kg i.v. day 10, 13, 16, 19", "result": "13.8 ± 1.0", "unit": "days"},
      {"measurement": "thymus weight compared to vehicle", "setting": "[4]; 0.1 mg/kg", "result": "significantly decreased; also recorded: significantly lower"},
      {"measurement": "cumulative arthritis score reduced with respect to the vehicle group", "setting": "[4]; 1 mg/kg", "result": 91, "unit": "%"},
      {"measurement": "day of disease onset", "setting": "[4]; 1 mg/kg i.v. day 10, 13, 16, 19", "result": "18.3 ± 2.1", "unit": "days"},
      {"measurement": "thymus weight compared to vehicle", "setting": "[4]; 1 mg/kg", "result": "significantly decreased"},
      {"measurement": "spleen and liver weights compared to vehicle", "setting": "[4]; 0.01, 0.1 and 1 mg/kg groups", "result": "No significant differences"},
      {"measurement": "body weight after initiation of treatment", "setting": "[4]; 0.01, 0.1 and 1 mg/kg groups", "result": "decreased gradually"}
    ]}
  ]
}
